# According to patent US20230233585A1, “USE OF […] OR OF ITS SALT FOR THE TREATMENT OF OSTEOARTHROSIS” (ABIOGEN PHARMA S.P.A., priority 2014, published 2023):
# Tests used:
# [1] = system: patients with acute painful knee osteoarthritis (OA); test: Pain in the affected knee by VAS (0-100), randomized double-blind placebo-controlled study; type: in vivo; details: mean ± SD
# Excerpt: (§1) The aim of this randomized, double-blind, placebo-controlled study was to assess the efficacy of intravenous neridronate in controlling pain in patients with acute painful knee osteoarthritis (OA).
# (§2) From March 2013 to January 2014, 96 patients older than 50 years and with a recent onset of knee pain were screened. These patients came from the orthopedic and rheumatologic outpatients services and the emergency department of a tertiary care center devoted to bone and joint diseases. Sixty-eight patients were considered eligible to be recruited when they met the following inclusion criteria: 1) knee OA fulfilling the American College of Rheumatology diagnostic criteria; 2) a radiographic Kellgren-Lawrence grading score ≥2 in the tibiofemoral joint; 3) a continuous knee pain by at least 2 weeks with an onset no longer than three months; 4) a pain intensity greater than 30 mm on a Huskisson's visual analog scale ranging from 0 (no pain) to 100 mm (maximal pain); 5) a knee MR scan showing large (>1 cm according to international criteria) BMLs. […] At the time of recruitment, 58 patients out of 68 (85.3%) were taking or had taken drugs to control pain in the previous three months. The patients were asked not to take any analgesics or nonsteroidal anti-inflammatory drugs (NSAIDs) throughout the study period. All patients gave written consent. The study was approved by the Ethics Committee of the hospital where the study was carried out.
# (§3) After enrolment, patients were randomized to receive placebo or sodium neridronate (Abiogen, Pisa, Italy) 100 mg/8 ml in vials with an identical appearance in a 1:1 ratio. Both sodium neridronate and placebo were diluted in 500 ml of saline isotonic solution and infused in the morning for over 2 hours. The treatment was administered every third day four times starting from day 1 (first infusion) and ending on day 10 (fourth infusion). Throughout the infusion course, serum calcium was assayed before each infusion. The values were adjusted for albumin value of 4.2 g/dL. After 60 days (57-66) from the first infusion, the last clinical assessment was performed. Two months after the end of the study, patients were interviewed by telephone about a possible relapse of pain and the possible resumption of analgesic drugs and/or NSAIDs.
# Primary outcome of the study was the assessment and comparison of changes in pain intensity between the sodium neridronate group and the placebo group along the study. Pain in the affected knee was measured by VAS (0-100) at day 1 (T0), at the day of the last infusion (day 10; T1) and 50 days later (T2). As secondary endpoints, the following clinical assessments were performed: the Western Ontario and MacMaster Universities Osteoarthritis Index (WOMAC) pain questionnaire; the McGill Pain Questionnaire and the 36-Item Short Form Health Survey (SF-36) questionnaire to assess the patient's functional status. All these instruments were administered at T0 and T2. As additional endpoint, changes in WORMS score before the treatment and at T2 have been measured.
# [2] = system: patients with acute painful knee osteoarthritis (OA); test: WOMAC pain questionnaire; type: in vivo; details: mean ± SD
# Excerpt: as §1
# (§4) From March 2013 to January 2014, 96 patients older than 50 years and with a recent onset of knee pain were screened. These patients came from the orthopedic and rheumatologic outpatients services and the emergency department of a tertiary care center devoted to bone and joint diseases. […]
# (§5) Primary outcome of the study was the assessment and comparison of changes in pain intensity between the sodium neridronate group and the placebo group along the study. Pain in the affected knee was measured by VAS (0-100) at day 1 (T0), at the day of the last infusion (day 10; T1) and 50 days later (T2). […] As additional endpoint, changes in WORMS score before the treatment and at T2 have been measured.
# [3] = system: patients with acute painful knee osteoarthritis (OA); test: SF-36 questionnaire (functional status); type: in vivo; details: mean ± SD
# Excerpt: as §1, §2, §3, §5
# [4] = system: patients with acute painful knee osteoarthritis (OA); test: McGill Pain Questionnaire; type: in vivo; details: mean ± SD
# Excerpt: as §1, §4, §5
# [5] = system: subchondral BMLs in patients with painful knee OA; test: Knee MRI, WORMS score for bone marrow edema; type: in vivo; details: mean ± SD
# Experimental: as §3
# High resolution, three-dimensional MRI of the target knee was obtained for each patient before the start of the treatment (1-7 days) and at the end of the study (day 58-69). All MR images were evaluated by a skilled musculoskeletal radiologist who was blinded to the patient's treatment. All MR examinations were performed with a 1.5 T scanner (Magnetom Espree, Siemens) using a dedicated knee coil. Imaging was performed on sagittal, coronal and transverse planes, with a field of view (FOV) of 18 cm and a matrix of acquisition of 256×256. The MR protocol included: spin echo (SE) T1-weighted sequences (repetition time TR 580 ms, echo time TE 12 ms, number of signal averages 2, thickness 3.0 mm, intersection gap 0.5 mm) on sagittal, coronal and transverse planes; SE T2-weighted sequences (TR 4.000 ms, TE 30/100 ms, one signal acquired, thickness 3.0 mm, intersection gap 0.5 mm) on sagittal and transverse planes; PD-weighted sequence with fat/suppression (TR 2800 ms, TE 40 ms, one signal acquired, thickness 3.0 mm, intersection gap 0.5 mm) on coronal plane. Subchondral BMLs were identified as areas of increase signal intensity on fat-suppressed T2-weighted images. Scores were assigned using the Whole-Organ MRI score for knee OA (WORMS) for bone marrow edema. […] For each subregion, the extent of the lesion was assessed following the WORMS scale: 0=absence of edema; 1=less than 25%; 2=25-50%; 3=>50%.
# as §5
# [6] = system: patients with acute painful knee osteoarthritis (OA); test: Telephone interview on resumption of analgesic drugs and/or NSAIDs; type: in vivo; details: two months after the last clinical evaluation; 4 patients out of 31
# Experimental: as §3
# [7] = system: patients with acute painful knee osteoarthritis (OA); test: Adverse events during the infusion course; type: in vivo; details: one patient, after the first infusion
# Experimental: as §3
# Fifty-six patients completed the study. […] Eight patients in the placebo group were excluded for the resumption of analgesic or NSAIDs treatment during the study (7 patients) and one patient refused to return to be evaluated 50 days after the treatment. […]
# [8] = system: patients with osteoarthritis; details: dosages 5, 15, 35 and 50 mg; cited from earlier work
# [9] = 50 days after the end of treatment (T2), N = 31
SMILES,"VAS score ([1]; 50 days after the end of treatment (T2), 100 mg i.v. x4, N = 31)","VAS score ([1]; 50 days after the end of treatment (T2), 100 mg i.v. x4, N = 31, listed as Neridronate)","VAS score ([1]; baseline (day 1, T0), before treatment, N = 34)","VAS score ([1]; baseline (day 1, T0), before treatment, N = 34, listed as Neridronate)","VAS score ([1]; day of the last infusion (day 10, T1), 100 mg i.v. on days 1, 4, 7, 10)","WOMAC [2, 9]","WOMAC ([2]; baseline (T0), N = 34)","SF-36 mental component [3, 9]","SF-36 physical component [3, 9]","SF-36 mental component ([3]; baseline (T0), N = 34)","SF-36 physical component ([3]; baseline (T0), N = 34)","McGill [4, 9]","McGill ([4]; baseline (T0), N = 34)","WORMS score ([5]; T2, MRI at the end of the study, N = 31)","WORMS score ([5]; T2, MRI at the end of the study, N = 31, listed as Neridronate)","WORMS score ([5]; baseline, MRI before the start of treatment, N = 34)","WORMS score ([5]; baseline, MRI before the start of treatment, N = 34, listed as Neridronate)",patients who had resumed symptomatic therapy with analgesic drugs or NSAIDs [6] [%],adverse event leading to withdrawal of consent [7],efficacy of treatment in pain symptoms versus placebo [8]
NCCCCCC(O)(P(=O)(O)O)P(=O)(O)O [sodium neridronate],9.4±10.8,9.4,59.0±14.7,59.0 ± 14.7,30.4±15.6,58,232 ± 79,62.5,51.1,56.1 ± 12.4,36.6 ± 10.2,3.7,14.3 ± 7.6,3.7±4.2,3.7,6.3±3.0,6.3 ± 3.0,12.9,acute phase reaction,–
O=P(O)(O)C(O)(Cc1cccnc1)P(=O)(O)O [risedronate],–,–,–,–,–,–,–,–,–,–,–,–,–,–,–,–,–,–,–,it was not possible to find any difference
